Measured values as given in patent publication EP4755891A1, “ARF1 INHIBITOR AND USE THEREOF” (AOBIO PHARMACEUTICAL CO., LTD., priority 2023, dated 2025).
“Also recorded” adds a separate entry of the source. Like-named read-outs stand apart in the source and are kept apart here.

What was measured:
[1] = Pharmacokinetic study in SD rats; assay type: in vivo
Procedure: In this experiment, six male SD rats were divided into two groups based on similar body weight. These rats were administered Compound 9 via single intravenous injection and oral gavage, respectively. The intravenous injection dose was 2 mg/kg, while the oral gavage dose was 10 mg/kg. The vehicle for both intravenous and oral administration was a clear solution of 5% DMSO + 5% PEG400 + 90% water. The concentration for intravenous injection was 0.4 mg/mL, and for oral gavage was 1 mg/mL. K2-EDTA was used as the anticoagulant. The blood sampling time points were all at: 0.083, 0.25, 0.5, 1, 3, 6, 12, and 24 hours.
Blood samples of 0.02 mL were collected from the saphenous vein of all experimental animals, and the actual blood collection time was recorded. In this experiment, the deviation of the blood sampling time from the theoretical sampling time complied with the regulations (points within 1 hour after administration were within ±1 minute, and all others were within 5% of the theoretical time). After blood sample collection, the blood samples were immediately transferred to labeled centrifuge tubes containing K2-EDTA (0.5 M). The samples were then centrifuged (3000 g, 4°C, 15 minutes), and the plasma was collected. The plasma was transferred to a pre-cooled centrifuge tube, flash-frozen in dry ice, and stored in an ultra-low temperature freezer at -60°C or less until LC-MS/MS analysis was performed.

NF-κB signaling pathway = test: Activation of NF-κB signaling pathway (phosphorylated P65, Western blot); assay type: cell-based, Murine; conditions: CT26 cells; FIG. 6
Procedure: In this example, Compounds 3 and 9 synthesized in the above preparation examples were tested for their ability to activate the NF-κB signaling pathway, as indicated by an increase of phosphorylated P65. GCA, a known Arf1 inhibitor, was used as a positive control.
In CT26 cells treated with DMSO, GCA, Compound 3, or Compound 9, the relevant protein levels were evaluated by Western blot analysis as previously described (Wang et al., 2020).

[2] = Plasma stability, mouse plasma; assay type: in vitro ADME; conditions: 2.0 µM, 37°C
Procedure: (§1) At 37°C, 2.0 µM of the compound was co-incubated with plasma samples from five species (mouse, rat, dog, cynomolgus monkey, human) for 120 minutes. The concentration of the compound in the samples was detected by the liquid chromatography-tandem mass spectrometry (LC-MS/MS) method, and the half-life (T1/2) was calculated.

[3] = Permeability in Caco-2 cells; assay type: in vitro ADME; conditions: human, Caco-2, pH 7.4, 2.00 µM
Procedure: (§2) The permeability of Compound 9 was evaluated using Caco-2 cells. The transport buffer used in this study was HBSS with 10.0 mM HEPES, pH 7.40±0.05. The test concentration was 2.00 µM, and a bidirectional test was performed on the test compound. Digoxin was repeatedly tested bidirectionally at 10.0 µM, while nadolol and metoprolol were repeatedly tested in the A-B direction at 2.00 µM. The final DMSO concentration was adjusted to less than 1%. The mixture was incubated at 37.0°C, 5% CO2, saturated humidity, without shaking in a CO2 incubator for 2 hours. All samples were mixed with acetonitrile containing internal standards and centrifuged at 3220 × g for 10 mins. The concentrations of the test compound and reference compound in the initial solution, donor solution, and acceptor solution were determined by the LC-MS/MS, using the analyte/internal standard peak area ratio.

Caco-2 cells = test: Permeability in Caco-2 cells; assay type: in vitro ADME; conditions: Caco-2, conclusion in words
Procedure: as §2

B16-F10 melanoma = test: Inhibition of B16-F10 melanoma in C57B/6 mice; assay type: in vivo; conditions: 5 mg/kg, oral, two consecutive weeks
Procedure: In this example, the inhibitory effect of Compound 9 synthesized in the above preparation example on melanoma tumor growth was tested.
Murine B16-F10 cells were inoculated at a dose of 5×10^5 cells per mouse into the left abdomen of 6-week-old male mice. Approximately 7 days later, the mice were treated orally with ddH2O or the novel Arf1 inhibitor for two consecutive weeks. The mice were randomly divided into three groups: the control group, the Compound 9 treatment group, and the DU102 treatment group. The mice were administered ddH2O, 5 mg/kg of Compound 9 (dissolved in ddH2O), or 5 mg/kg of DU102 (dissolved in a solvent composed of 5% DMSO + 95% corn oil, as a positive control) for two consecutive weeks. Tumor diameters were measured every 2-3 days using a digital caliper (ULINE, Cat^# H-7352), and the tumor volume was calculated using the formula ½ × longitudinal diameter (length) × maximum transverse diameter (width). When the maximum tumor volume reached 2000 mm^3, the mice were euthanized.

[4] = Plasma stability, rat plasma; assay type: in vitro ADME; conditions: 37°C; for remaining amount in plasma: rat plasma, 2.0 µM
Procedure: as §1

Arf1 = molecular target: T1, Arf1 (Homo sapiens, UniProt P84077); test: Inhibition test of Arf1 activation (Active Arf1 pull-down and detection kit, Western blot); assay type: cell-based; conditions: lysate of liver cancer Huh-7 cells; GTP-bound Arf1; FIG. 3
T1 construct: endogenous in cells; host or cells: Huh-7 liver cancer cells (lysate)
T1 sequence (P84077 whole entry): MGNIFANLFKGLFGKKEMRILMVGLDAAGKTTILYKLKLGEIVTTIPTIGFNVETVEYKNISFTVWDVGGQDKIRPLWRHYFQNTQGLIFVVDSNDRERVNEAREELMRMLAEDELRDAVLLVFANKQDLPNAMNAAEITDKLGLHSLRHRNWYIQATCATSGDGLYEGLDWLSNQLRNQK
Procedure: In this example, the inhibitory ability of Compounds 3 and 9 synthesized in the above preparation examples on Arf1 activation was tested. The Pierce Active Arf1 Pull-Down and Detection Kit (Thermo Scientific, Cat#16121) was used with the lysate of liver cancer Huh-7 cells to detect the activated Arf1. It is a complete kit that selectively enriches and detects GTP-bound Arf1 GTPase through specific protein interactions with the GGA3 protein-binding domain.

Mouse neuroblastoma N2A = test: Test for Golgi morphology abnormalities (GM130 immunofluorescence); assay type: cell-based; conditions: N2A cells; FIG. 4
Procedure: GCA, a known Arf1 inhibitor, was used as a positive control.
Mouse neuroblastoma N2A (N2a, ATCC®CCL-131™) was cultured, treated, and subjected to immunofluorescence staining as previously reported (Wang et al., 2021).

CCL5 = test: Upregulation of chemokine CCL5 expression (quantitative RT-PCR); assay type: cell-based, Murine; conditions: CT26 cells; FIG. 5
Procedure: In this example, the upregulation of chemokine CCL5 expression induced by the treatment of Compounds 3 and 9 synthesized in the above preparation examples was tested. Quantitative RT-PCR was used to measure the expression level of chemokine CCL5 in CT26 cells treated with DMSO, Compound 3, or Compound 9.

In the case of `Cc1csc2ncnc(Nc3ccc4c(c3)ncn4C)c12` [Compound 9, 5-Methyl-N-(1-methyl-1H-benzo[d]imidazol-5-yl)thieno[2,3-d]pyrimidin-4-amine], the absorption in rats ([1]; conclusion in words) is reported as “rapidly absorbed”, the “apparent volume of distribution” value ([1]; conclusion in words) is reported as “moderate apparent volume of distribution” and the oral bioavailability ([1]; conclusion in words) is reported as “high oral bioavailability”. For the same compound, the Vd ([1]; rat, plasma, Intravenous Injection, 2 mg/kg, male SD rats, read-out: Apparent Volume of Distribution Vdss) was 0.647 L/kg, the clearance ([1]; rat, plasma, Intravenous Injection, 2 mg/kg, male SD rats, read-out: Clearance Cl) was 39.8 mL/min/kg and the half-life ([1]; rat, plasma, Intravenous Injection, 2 mg/kg, male SD rats, read-out: Half-Life T1/2 (converted)) was 11 min. It also gave a bioavailability ([1]; rat, plasma, Oral Gavage, 10 mg/kg vs intravenous 2 mg/kg, male SD rats, read-out: Bioavailability F) of 164%, an AUC(0-t) ([1]; rat, plasma, Oral Gavage, 10 mg/kg, male SD rats, read-out: Exposure AUC0-last) of 6840 ng·h/mL and a half-life ([1]; rat, plasma, Oral Gavage, 10 mg/kg, male SD rats, read-out: Half-life T1/2 (converted)) of 34.2 min. For the same compound, the Cmax ([1]; rat, plasma, Oral Gavage, 10 mg/kg, male SD rats, read-out: Maximum Concentration Cmax) was 4770 ng/mL, the “phosphorylation level of P65” value (NF-κB signaling pathway) was “increase the phosphorylation level of P65” and the “remaining amount in plasma” value ([2]; time point 0 min) was 100.0%. The “remaining amount in plasma” value ([2]; time point 10 min) was 99.3%, the “remaining amount in plasma” value ([2]; time point 30 min) was 98.6% and the “remaining amount in plasma” value ([2]; time point 60 min) was 104.1%. The “remaining amount in plasma” value ([2]; time point 120 min) was 96.5%, the Papp A→B at 2 h, 2 µM ([3]; 2 hours, pH 7.40±0.05) was 29 ×10⁻⁶ cm/s and the Papp B→A at 2 h, 2 µM ([3]; 2 hours, pH 7.40±0.05) was 20.7 ×10⁻⁶ cm/s. The efflux ratio at 2 h, 2 µM ([3]; bidirectional, read-out: Efflux Ratio (ER)) was 0.714, the cellular permeability (Caco-2 cells) was “high cellular permeability” and the “substrate of the efflux transporter P-gp” value (Caco-2 cells) was “unlikely to be a substrate of the efflux transporter P-gp”. For the same compound, the B16-F10 melanoma growth (B16-F10 melanoma; FIG. 8) was “effectively inhibit B16-F10 melanoma growth”, the “size of murine melanoma tumors” value (B16-F10 melanoma; FIG. 8A) was “significantly inhibited the size of murine melanoma tumors” and the “weight of murine melanoma tumors” value (B16-F10 melanoma; FIG. 8B) was “significantly reduced the weight of murine melanoma tumors”. The half-life at 2 µM ([4]; plasma, printed in the Rat row) was over 289 min, the “remaining amount in plasma” value ([4]; time point 0 min) was 100.0% and the “remaining amount in plasma” value ([4]; time point 10 min) was 102.1%. The “remaining amount in plasma” value ([4]; time point 30 min) was 93.5%, the “remaining amount in plasma” value ([4]; time point 60 min) was 99.3% and the “remaining amount in plasma” value ([4]; time point 120 min) was 93.2%. For the same compound, the “inhibition of Arf1 activation” value (Arf1) was “effectively inhibit the activation of Arf1; also recorded: effective inhibitors”, the “Golgi morphology (Golgi apparatus defects, distribution of Golgi marker GM130)” value (Mouse neuroblastoma N2A) was “induce Golgi apparatus defects; also recorded: effectively induce morphological changes in the Golgi apparatus” and the “expression of the chemokine CCL5” value (CCL5) was “effectively promote the expression”.
